From patent US9505798B2, “Steroid compounds as RORyt modulators and uses thereof” (New York University, priority 2010, dated 2016)

Target: T1, C. elegans Daf12 (Caenorhabditis elegans, UniProt G5EFF5)
T1 construct: C. elegans Daf12 (amino acids 184 to end); expressed in transfected cells; host or cells: Drosophila S2 cells
Assay: S2 cell Daf12 reporter
Format: cell-based
Excerpt: The Drosophila S2 cell line was originally purchased from Invitrogen and was maintained in Schneider's Drosophila medium supplemented with 10% heat-inactivated bovine fetal calf serum and 1× antibiotic-antimycotic solution (Invitrogen). The Gal4 DNA binding domain (G4 DBD), corresponding to amino acids 1 through 147 of the Gal4 protein, was PCR amplified to make the fusion construct with murine RORγ (amino acids 79 to the carboxyl terminal end) lacking its DNA binding domain. The resulting chimeric gene was subcloned into the copper inducible pMT/V5-His A vector (Invitrogen) and into the constitutive pAc vector. Similar methods yielded fusion constructs between G4 DBD and murine RORα (amino acids 142 to end), Drosophila DHR3 (amino acids 120 to end), C. elegans Daf12 (amino acids 184 to end), and herpes simplex virus VP16 (amino acids 413 to end). Coding sequences for firefly luciferase (Promega) were PCR amplified and subcloned into the pUAST vector containing five Gal4 binding enhancer sequences. The Renilla luciferase construct under a pol III promoter and the pAc vector were obtained from R. Dasgupta (NYU School of Medicine). […]

T1 sequence (G5EFF5 184-753 limits assumed): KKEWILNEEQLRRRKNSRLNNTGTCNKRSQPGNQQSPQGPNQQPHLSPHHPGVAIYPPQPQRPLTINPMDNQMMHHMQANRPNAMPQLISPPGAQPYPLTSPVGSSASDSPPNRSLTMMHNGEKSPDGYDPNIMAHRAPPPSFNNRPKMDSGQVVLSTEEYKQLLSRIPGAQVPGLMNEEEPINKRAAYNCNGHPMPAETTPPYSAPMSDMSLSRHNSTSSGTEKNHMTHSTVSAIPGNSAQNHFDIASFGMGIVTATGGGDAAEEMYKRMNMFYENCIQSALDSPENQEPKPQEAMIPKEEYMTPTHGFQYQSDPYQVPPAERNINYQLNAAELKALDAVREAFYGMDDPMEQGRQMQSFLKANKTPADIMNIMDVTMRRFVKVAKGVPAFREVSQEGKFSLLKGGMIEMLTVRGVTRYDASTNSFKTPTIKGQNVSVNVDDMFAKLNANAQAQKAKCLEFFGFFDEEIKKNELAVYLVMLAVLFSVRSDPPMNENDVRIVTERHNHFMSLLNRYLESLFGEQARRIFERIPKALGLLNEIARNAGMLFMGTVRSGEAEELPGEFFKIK

C[C@H]1O[C@@H](O[C@H]2[C@@H](O)C[C@H](O[C@H]3[C@@H](O)C[C@H](O[C@H]4CC[C@@]5(C)[C@H](CC[C@@H]6[C@@H]5C[C@@H](O)[C@]5(C)[C@@H](C7=CC(=O)OC7)CC[C@]65O)C4)O[C@@H]3C)O[C@@H]2C)C[C@H](O)[C@@H]1O [Digoxin]
inhibition of C. elegans Daf12 activity: did not inhibit
